The structures appear in SMILES notation.

Data set [1] addresses T1, ERK2 (Homo sapiens, UniProt P28482).
T1 construct: purchased R&D 1879-KS-010
Description: ERK2 enzyme activity test (ADP-Glo Kinase Assay). It is filed as biochemical. As to conditions: ADP-Glo chemiluminescence. The method, then:
(§1) The purpose of this experiment is to detect the inhibitory ability of the compounds of the present disclosure on the ERK2 enzyme activity, and to evaluate the in vitro activity of the compounds based on the IC50. The ADP-Glo™ Kinase Assay Kit was used in this experiment. The substrate was phosphorylated under the action of the enzyme and ADP was produced at the same time. The ADP-Glo reagent was added to remove the unreacted ATP in the reaction system, and the ADP produced by the reaction was detected with kinase detection reagent. In the presence of the compound, the inhibition rate of the compound was calculated by measuring the signal value.
Preparation of enzyme and substrate: ERK2 (1879-KS-010, R&D) and substrate (custom peptide, Gill Biochemical) were prepared to 0.75 ng/ml and 1500 μM in a buffer (40 mM Tris, 20 mM MgCl2, 0.1 mg/ml BSA, 50 μM DTT), and then the enzyme solution and the substrate solution were prepared into a mixed solution at a volume ratio of 2:1 for later use. ATP was diluted to 500 μM with buffer. The compound was dissolved in DMSO (dimethyl sulfoxide, Shanghai Titan Scientific Co., Ltd.) to prepare a stock solution with an initial concentration of 20 mM, and then Bravo was used to prepare the compound. Finally, 3 μL of a mixed solution of enzyme and substrate, and 1 μL substrate of different concentrations of the compound (the initial concentration is 50 μM, 4-fold dilution) were added to each well of the 384-well plate, and the plate was incubated at 30° C. for 10 minutes, and finally 1 μL 500 μM ATP solution was added to each well, and the plate was incubated at 30° C. for 2 hours. Then 5 μL of ADP-Glo was added, and the plate was incubated at 30° C. for 40 minutes. Then 10 μL of kinase detection buffer was added, and the plate was incubated at 30° C. for 40 minutes. The 384-well plate was taken out and placed in a microplate reader (BMG labtech, PHERAstar FS), and the chemiluminescence was measured by a microplate reader.
(§2) Microsoft Excel, Graphpad Prism 5 was used to process and analyze the data.
For orientation: ADP-Glo first removes unused ATP, then detects ADP through luciferase.

Data set [2] is described as follows: Pharmacokinetics assay in mice. It is filed as in vivo. To be noted: female, mouse, po, C57 mice, intragastric, 2 mg/kg, plasma; for Vd/F: read-out: Apparent distribution volume Vz/F; for AUC: read-out: Area under curve AUC; for CL/F: read-out: Clearance CLz/F; for half-life: read-out: Half-life T1/2 (converted); for Cmax: read-out: Plasma concentration Cmax; for MRT: read-out: Residence time MRT. How it is done: Mice were used as test animals. The drug concentration in plasma at different time points was determined by LC/MS/MS method after administration of the compounds 1-P2, 2-P2, 4-P2, 6-P2, 9-P2, 10-P2 and 11-P2. The pharmacokinetic behavior of the compounds of the present disclosure was studied and evaluated in mice.
Sixty-three C57 mice (female, equally divided into seven groups) were purchased from Shanghai Jiesijie Laboratory Animal Co., LTD. (Certificate No.: SCXK(Shanghai)2013-0006).
A certain amount of the test compound was weighed, dissolved in 5% of DMSO by volume and 5% of tween 80, followed by the additon of 90% of normal saline to prepare a 0.1 mg/mL colorless, clear and transparent solution.
After an overnight fast, C57 mice were intragastrically administered the test compound at an administration dose of 2 mg/kg and an administration volume of 0.2 ml/10 g.
The mice were intragastrically administered the test compounds. 0.1 ml of blood was taken before the administration and at 0.25, 0.5, 1.0, 2.0, 4.0, 6.0, 8.0, 11.0 and 24.0 hours after the administration. The samples were stored in heparinized tubes, and centrifuged for 10 minutes at 3500 rpm to separate the blood plasma. The plasma samples were stored at −20° C.
The content of the test compound in the plasma of mice after intragastrical administration of the test compound at different concentrations was determined: 25 μL of […] plasma at each time point after the administration was taken, followed by the addition of 50 μL of the internal standard camptothecin solution (100ng/mL) and 200 μL of acetonitrile. The resulting solution was vortex-mixed for 5 minutes, and centrifuged for 10 minutes (4000 rpm). 4 μL of the supernatant was taken from the plasma samples for LC/MS/MS analysis.

Data set [3] concerns Colo205 cells. Kind of data set: In vitro proliferation inhibition test on Colo205 tumor cells (CellTiter-Glo). It is filed as cell-based. To be noted: Homo sapiens, COLO 205, 72 h; Colo205 cell proliferation, 3 days of culture, CTG. The method, then: The purpose of this experiment is to test the inhibitory activity of the compounds of the present disclosure on the proliferation of Colo205 cells (CCL-222, ATCC) in vitro. The cells were treated in vitro with different concentrations of the compounds. After 3 days of culture, the cell proliferation was tested with CTG (CellTiter-Glo® Luminescent Cell Viability Assay, Promega, Catalog No. G7573) reagent, and the in vitro activity of the compounds was evaluated according to the ICso value.
In the following, the in vitro proliferation inhibition test method of Colo205 cells is taken as an example to illustrate the method for testing the in vitro proliferation inhibitory activity of the compounds of the present disclosure on tumor cells. This method is also applicable to, but not limited to, the in vitro proliferation inhibitory activity test on other tumor cells.
Colo205 cells were digested, centrifuged and then resuspended. The single cell suspension was mixed well, and the density of viable cells was adjusted to 5.0×10^4 cells/ml with cell culture medium (RPMI1640+2% FBS), and 95 μL/well was added to a 96-well cell culture plate. Only 100 μL medium was added to the peripheral wells of the 96-well plate. The culture plate was incubated in an incubator for 24 hours (37° C., 5% CO2).
The compound was dissolved in DMSO (dimethyl sulfoxide, Shanghai Titan Scientific Co., Ltd.) and prepared as a stock solution with an initial concentration of 20 mM. The initial concentration of the small molecule compound was 2 mM, and then 4-fold diluted into 9 points, and the 10th point was DMSO. Another 96-well plate was taken, and 90 μL of cell culture medium (RPMI1640+2% FBS) was added to each well. Then 10 μL of different concentrations of the test sample was added to each well. The mixture was mixed well, and then 5μL of different concentrations of the test sample was added to the cell culture plate. Each sample has two duplicate holes. The culture plate was incubated in the incubator for 3 days (37° C., 5% CO2). The 96-well cell culture plate was taken out. 50 μL solution of CTG was added to each well, and the plate was incubated for 10 minutes at room temperature. In a microplate reader (BMG labtech, PHERAstar FS), chemiluminescence was measured with the microplate reader.
as §2
On the technique in general: ATP-based viability assays read luminescence as a measure of living cells.

The target of data set [4] is T2, ERK1 (Homo sapiens, UniProt P27361).
T2 construct: purchased R&D 1879-KS-010
Kind of data set: ERK1 enzyme activity test (ADP-Glo Kinase Assay). It is filed as biochemical. To be noted: ADP-Glo chemiluminescence. The method, then:
as §1, with “ERK1” for “ERK2”, “activity” for “activity,”
Preparation of Enzyme and substrate: ERK1 (1879-KS-010, R&D) and substrate (AS-61777, anaspec) were prepared to 0.75 ng/p1 and 100 μM respectively in a buffer, and then the enzyme solution and the substrate solution were prepared into a mixed solution at a volume ratio of 2:1 for later use. ATP was diluted to 300 μM with buffer. The compound was dissolved in DMSO (dimethyl sulfoxide, Shanghai Titan Scientific Co., Ltd.) to prepare a stock solution with an initial concentration of 20 mM, and then Bravo was used to prepare the compound. Finally, 3 μL of a mixed solution of enzyme and substrate, and 1 μL of different concentrations of the compound (the initial concentration was 50 μM, 4-fold dilution) were added to each well of the 384-well plate, and the plate was incubated at 30° C. for 10 minutes, and finally 1 μL of 300 μM ATP solution was added to each well, and the plate was incubated at 30° C. for 2 hours. Then 5 μL of ADP-Glo was added, and the plate was incubated at 30° C. for 40 minutes. Then 10 μL of kinase detection buffer was added, and the plate was incubated at 30° C. for 40 minutes. The 384-well plate was taken out and placed in a microplate reader (BMG labtech, PHERAstar FS), and the chemiluminescence was measured by a microplate reader.
as §2

T2 sequence (P27361 whole entry): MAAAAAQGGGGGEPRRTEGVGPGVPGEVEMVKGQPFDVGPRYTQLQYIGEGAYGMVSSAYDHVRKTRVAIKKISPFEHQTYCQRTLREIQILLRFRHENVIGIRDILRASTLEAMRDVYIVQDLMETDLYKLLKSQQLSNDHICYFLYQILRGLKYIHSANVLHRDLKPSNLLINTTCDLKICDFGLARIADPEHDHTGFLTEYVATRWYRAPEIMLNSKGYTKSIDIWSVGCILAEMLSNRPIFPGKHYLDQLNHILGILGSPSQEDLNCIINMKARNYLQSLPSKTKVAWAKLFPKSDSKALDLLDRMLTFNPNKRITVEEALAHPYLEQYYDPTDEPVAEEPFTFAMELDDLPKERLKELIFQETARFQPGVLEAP
T1 sequence (P28482 2-360 limits assumed): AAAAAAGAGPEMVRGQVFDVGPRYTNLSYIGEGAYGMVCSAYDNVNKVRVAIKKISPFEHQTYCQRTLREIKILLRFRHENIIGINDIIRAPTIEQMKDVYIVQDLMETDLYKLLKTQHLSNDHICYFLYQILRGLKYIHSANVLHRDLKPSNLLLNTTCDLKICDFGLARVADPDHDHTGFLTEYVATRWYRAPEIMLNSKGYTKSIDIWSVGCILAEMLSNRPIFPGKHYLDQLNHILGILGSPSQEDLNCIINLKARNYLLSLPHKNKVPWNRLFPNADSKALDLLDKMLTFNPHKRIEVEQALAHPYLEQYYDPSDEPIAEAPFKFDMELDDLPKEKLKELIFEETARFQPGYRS

With `Cc1cccc([C@@H](CO)NC(=O)[C@@H](C)N2CCc3cc(-c4nc(NC5CCOCC5)ncc4Cl)cn3C2=O)c1` [Example 11-P2, (R)-2-(6-(5-Chloro-2-((tetrahydro-2H-pyran-4-yl)amino)pyrimidin-4-yl)-1-oxo-3,4-dihydropyrrolo[1,2-c]pyrimidin-2(1H)-yl)-N-((S)-2-hydroxy-1-(m-tolyl)ethyl)propanamide], 2.1 nM corresponded to half-maximal inhibition in data set [1] (IC50). Moreover, in data set [2], the Vd/F was 3.51 L/kg; the AUC (in general, concentration integrated over time) stood at 784 ng·h/mL; the CL/F worked out at 42.4 mL/min/kg; the half-life was 0.957 h. Moreover, in data set [2], the Cmax is 813 ng/mL and the MRT (usually the average time that molecules of a dose stay in the body) was found to be 1.15 h. For the same compound, in data set [3], the IC50 (as a rule, the midpoint of a concentration-inhibition curve) worked out at 26 nM. Also, in data set [4], the IC50 is 17 nM.

In turn, `COc1cc(F)cc([C@@H](CO)NC(=O)[C@@H](C)N2CCc3cc(-c4nc(NC5CCOCC5)ncc4Cl)cn3C2=O)c1` [Example 2-P2, (R)-2-(6-(5-Chloro-2-((tetrahydro-2H-pyran-4-yl)amino)pyrimidin-4-yl)-1-oxo-3,4-dihydropyrrolo[1,2-c]pyrimidin-2(1H)-yl)-N-((S)-1-(3-fluoro-5-methoxyphenyl)-2-hydroxyethyl)propanamide] had an IC50 in data set [1] of 1.7 nM. Also, in data set [2], the Vd/F worked out at 5.94 L/kg, the AUC was determined as 994 ng·h/mL, the CL/F is 33.5 mL/min/kg and the half-life is 2.05 h. Moreover, in data set [2], the Cmax was 867 ng/mL and the MRT was 1.08 h. In data set [3], this compound came in with an IC50 of 15 nM. This compound also showed an IC50 in data set [4] of 4.6 nM.

In data set [1], `COc1cc(F)cc([C@@H](CO)NC(=O)[C@@H](C)N2CCn3cc(-c4nc(NC5CCOCC5)ncc4Cl)cc3C2=O)c1` [Example 4-P2, (R)-2-(7-(5-Chloro-2-((tetrahydro-2H-pyran-4-yl)amino)pyrimidin-4-yl)-1-oxo-3,4-dihydropyrrolo[1,2-a]pyrazin-2(1H)-yl)-N-((S)-1-(3-fluoro-5-methoxyphenyl)-2-hydroxyethyl)propanamide] had an IC50 of 1 nM. Further, in data set [2], the Vd/F turned out to be 3.29 L/kg, the AUC is 936 ng·h/mL, the CL/F worked out at 35.5 mL/min/kg and the half-life is 1.07 h. In data set [2], the Cmax was determined as 905 ng/mL and the MRT is 1.07 h. In addition, the IC50 in data set [3] is 10 nM. Moreover, the midpoint of inhibition in data set [4], the IC50, lay at 3.8 nM.

Take `COc1cc(F)cc([C@@H](CO)NC(=O)[C@@H](C)N2CCc3cc(-c4nc(Nc5ccnn5C)ncc4C)cn3C2=O)c1` [Example 1-P2, (R)-N-((S)-1-(3-Fluoro-5-methoxyphenyl)-2-hydroxyethyl)-2-(6-(5-methyl-2-((1-methyl-1H-pyrazol-5-yl)amino)pyrimidin-4-yl)-1-oxo-3,4-dihydropyrrolo[1,2-c]pyrimidin-2(1H)-yl)propanamide]: 1.5 nM corresponded to half-maximal inhibition in data set [1] (IC50). Besides, in data set [2], the Vd/F worked out at 3.75 L/kg, the AUC was found to be 1110 ng·h/mL, the CL/F stood at 29.7 mL/min/kg and the half-life was 1.46 h. Further, in data set [2], the Cmax was 501 ng/mL and the MRT turned out to be 1.84 h. This compound gave an IC50 in data set [3] of 17.4 nM. In addition, the IC50 in data set [4] was determined as 7 nM.

Source of the values: patent US20220204512A1, “SUBSTITUTED FUSED BICYCLIC DERIVATIVE, PREPARATION METHOD THEREFOR, AND APPLICATION THEREOF IN MEDICINES” (Jiangsu Hengrui Medicine Co., Ltd., priority 2019, published 2022).
